In assay [1] the test system is β-N-acetyl hexosaminidase. The assay can be described thus: In vitro glycosidase inhibition, β-N-acetyl hexosaminidase (human placenta). The following applies: for selectivity of inhibitory activity towards β-N-acetyl hexosaminidase: versus the other glycosidases of Table 1; for IC50: β-N-acetyl hexosaminidase, human placenta. Format: biochemical. As for the experimental part: (§1) All glycosidases and p-nitrophenyl glycosides were purchased from Sigma-Aldrich Co. The enzyme assays were performed according to the methods described in Kato, A.; Miyauchi, S.; Kato, N.; Nash, R. J.; Yoshimura, Y.; Nakagome, I.; Hirono, S.; Takahata, H.; Adachi, I. Bioorg. Med. Chem. 19, 3558-3568, 2011. The activities were determined using an appropriate p-nitrophenyl glycoside as substrate at the optimum pH of each enzyme. The reaction mixture contained 2 mM of the substrate and the appropriate amount of enzyme. The reaction was stopped by adding 2 mL of 400 mM Na2CO3. The released p-nitrophenol was measured spectrometrically at 400 nm.

The target of assay [2] is T1, α-galactosidase (Coffea arabica, UniProt Q42656).
T1 construct: purchased Sigma-Aldrich Co
The assay can be described thus: In vitro glycosidase inhibition, α-galactosidase (coffee beans). Format: biochemical. As for the experimental part:
as §1

Assay [3] relates to β-galactosidase. In words: In vitro glycosidase inhibition, β-galactosidase (bovine liver). It is filed as biochemical. As for the experimental part: as §1
The target of assay [4] is T2, α-N-acetyl galactosaminidase (Gallus gallus, UniProt Q90744).
T2 construct: purchased Sigma-Aldrich Co; host or cells: chicken liver
T2 sequence (Q90744 1-405): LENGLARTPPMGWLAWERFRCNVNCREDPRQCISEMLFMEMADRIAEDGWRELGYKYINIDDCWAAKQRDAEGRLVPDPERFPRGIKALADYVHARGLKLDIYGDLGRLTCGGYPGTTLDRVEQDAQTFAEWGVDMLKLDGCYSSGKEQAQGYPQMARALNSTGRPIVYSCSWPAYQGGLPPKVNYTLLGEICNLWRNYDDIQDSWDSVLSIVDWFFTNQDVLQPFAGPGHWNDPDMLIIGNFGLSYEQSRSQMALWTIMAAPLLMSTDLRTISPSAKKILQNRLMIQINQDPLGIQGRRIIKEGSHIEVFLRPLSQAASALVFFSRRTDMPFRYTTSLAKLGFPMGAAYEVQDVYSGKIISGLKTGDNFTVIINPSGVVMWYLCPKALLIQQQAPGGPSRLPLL
In words: In vitro glycosidase inhibition, α-N-acetyl galactosaminidase (chicken liver). Format: biochemical. As for the experimental part:
as §1

For assay [5], the target named is β-glucosidase. In words: In vitro glycosidase inhibition, β-glucosidase (bovine liver). It is filed as biochemical. As for the experimental part: as §1
Assay [6] concerns the target β-N-acetyl hexosaminidase. The assay can be described thus: In vitro glycosidase inhibition, β-N-acetyl hexosaminidase (bovine kidney). It is filed as biochemical. As for the experimental part:
as §1

The target of assay [7] is rat intestinal maltase. In words: In vitro glycosidase inhibition, α-glucosidase (rat intestinal maltase). It is filed as biochemical. The protocol:
as §1

The target in assay [8] is T3, α-mannosidase (Canavalia ensiformis, UniProt C0HJB3).
T3 construct: purchased Sigma-Aldrich Co
T3 sequence (C0HJB3 1-981): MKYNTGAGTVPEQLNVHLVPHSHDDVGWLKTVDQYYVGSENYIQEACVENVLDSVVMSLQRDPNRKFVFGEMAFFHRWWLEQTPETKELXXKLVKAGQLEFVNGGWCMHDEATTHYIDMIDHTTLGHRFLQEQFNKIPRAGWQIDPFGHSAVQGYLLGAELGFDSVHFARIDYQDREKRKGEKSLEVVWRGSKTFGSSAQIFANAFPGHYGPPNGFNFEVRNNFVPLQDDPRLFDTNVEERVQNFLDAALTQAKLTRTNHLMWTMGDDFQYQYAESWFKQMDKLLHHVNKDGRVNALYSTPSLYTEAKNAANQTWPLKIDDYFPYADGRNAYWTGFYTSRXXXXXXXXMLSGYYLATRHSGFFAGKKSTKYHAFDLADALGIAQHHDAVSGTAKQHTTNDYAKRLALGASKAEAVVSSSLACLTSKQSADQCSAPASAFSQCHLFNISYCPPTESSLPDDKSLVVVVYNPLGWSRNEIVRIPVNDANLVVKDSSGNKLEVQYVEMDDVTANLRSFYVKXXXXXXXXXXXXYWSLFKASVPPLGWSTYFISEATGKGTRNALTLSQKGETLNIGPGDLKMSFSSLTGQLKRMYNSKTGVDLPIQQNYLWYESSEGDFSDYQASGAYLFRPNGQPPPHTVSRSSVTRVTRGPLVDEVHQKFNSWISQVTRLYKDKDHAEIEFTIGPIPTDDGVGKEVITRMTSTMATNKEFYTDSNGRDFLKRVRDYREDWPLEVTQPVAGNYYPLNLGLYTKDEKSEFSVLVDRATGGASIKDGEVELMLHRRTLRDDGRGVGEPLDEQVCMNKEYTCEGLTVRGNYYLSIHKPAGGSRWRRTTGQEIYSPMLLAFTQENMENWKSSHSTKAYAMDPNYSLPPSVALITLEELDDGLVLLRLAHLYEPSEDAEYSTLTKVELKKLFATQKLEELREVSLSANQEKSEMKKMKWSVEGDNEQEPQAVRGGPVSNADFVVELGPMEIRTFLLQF
The assay can be described thus: In vitro glycosidase inhibition, α-mannosidase (jack beans). Format: biochemical. As for the experimental part: as §1

Assay [9] has as its target T4, α-glucosidase (Oryza sativa subsp. japonica, UniProt Q653V7).
T4 construct: purchased Sigma-Aldrich Co
The assay can be described thus: In vitro glycosidase inhibition, α-glucosidase (rice). It is filed as biochemical. As for the experimental part:
as §1

Assay [10] deals with T5, α-glucosidase (Saccharomyces cerevisiae, UniProt P53341).
T5 construct: purchased Sigma-Aldrich Co
In words: In vitro glycosidase inhibition, α-glucosidase (yeast). Format: biochemical. The protocol:
as §1

Assay [11] has as its target β-glucosidase. In words: In vitro glycosidase inhibition, β-glucosidase (almond). Format: biochemical. As for the experimental part: as §1
Assay [12] concerns the target β-mannosidase. The assay can be described thus: In vitro glycosidase inhibition, β-mannosidase (snail). It is filed as biochemical. As for the experimental part:
as §1

Assay [13] has as its system α-N-acetylglucosaminidase (NAGLU). The assay can be described thus: Enzyme activation assay, MPS IIIB fibroblasts GM02931. Format: cell-based, human. Conditions: 3 days, 0-10 μM. The protocol:
(§2) Compounds (1) and (B) (compound (B) is described in A. Vasella, Helvetica Chimica Acta, 1998, 865) were tested in 3 Sanfillipo patient-derived fibroblast cell lines, named as MPS IIIB fibroblast cells lines below.
(§3) MPS IIIB fibroblasts (GM01426, GM02931 and GM00737) were cultured in the presence of various concentrations of compounds (1) and (B) (0-10 μM) for 3 days before α-N-acetylglucosaminidase (NAGLU) activity was measured in cell homogenates using 4-methylumbelliferyl-α-N-acetylglucosamine (4-MU-α-GlcNAc) as substrate. Cells were washed twice in phosphate buffered saline, homogenised in water using a small dounce homogeniser, centrifuged at 800 g for 5 min and the supernatant taken for protein and enzyme activity. Protein concentration was determined using the BCA assay (Pierce, UK) according to manufacturer's instructions. An aliquot, (5 μl) of homogenate was added to a well of a 96-well plate containing 10 μl 2 mM 4-MU substrate (in water) and 5 μl 0.2 M sodium acetate buffer, pH 4.3. Following incubation for 3-4 h at 37° C. in a humidified incubator, the reaction was stopped by adding 300 μl 0.5 M glycine/NaOH, pH 10.3 and the fluorescence measured at 460 nm using an excitation wavelength of 350 nm, em 460 nm. Enzyme activation is defined as the fold increase in fluorescence due to enzyme activity (FU/μg protein) in treated cells compared to untreated cells. […]

The test system is the same in assay [14]. The assay can be described thus: Enzyme activation assay, MPS IIIB fibroblasts GM01426. The following applies: 3 days, 0-10 μM. It is filed as cell-based, human. As for the experimental part:
as §2, §3

The test system is the same in assay [15]. In words: Enzyme activation assay, MPS IIIB fibroblasts GM00737. Format: cell-based, human. The following applies: 3 days, 0-10 μM. The protocol: as §2, §3
Setting [16] is: 1000 μM, read-out: % of inhibition at 1000 μM.
Setting [17] is: read-out: % of inhibition at 1000 μM.

Read-outs that look alike come from different tables or passages of the source. Where only a bound is given, the exact number is not on record here.

T5 sequence (P53341 whole entry): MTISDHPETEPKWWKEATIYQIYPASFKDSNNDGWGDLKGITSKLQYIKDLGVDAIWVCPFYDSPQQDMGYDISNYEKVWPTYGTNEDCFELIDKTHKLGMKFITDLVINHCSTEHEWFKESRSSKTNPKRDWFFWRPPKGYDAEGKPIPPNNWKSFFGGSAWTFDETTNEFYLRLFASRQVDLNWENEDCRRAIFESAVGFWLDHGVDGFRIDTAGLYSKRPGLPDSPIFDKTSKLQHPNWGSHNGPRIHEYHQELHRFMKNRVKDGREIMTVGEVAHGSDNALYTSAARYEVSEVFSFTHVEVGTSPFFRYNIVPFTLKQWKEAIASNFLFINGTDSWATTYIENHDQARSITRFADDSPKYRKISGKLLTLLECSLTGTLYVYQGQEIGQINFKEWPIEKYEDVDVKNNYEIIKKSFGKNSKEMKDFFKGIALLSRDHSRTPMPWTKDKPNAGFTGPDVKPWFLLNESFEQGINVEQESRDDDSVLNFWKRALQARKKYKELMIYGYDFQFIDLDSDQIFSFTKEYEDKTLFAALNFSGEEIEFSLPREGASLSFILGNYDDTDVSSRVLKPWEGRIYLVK
T4 sequence (Q653V7 34-885): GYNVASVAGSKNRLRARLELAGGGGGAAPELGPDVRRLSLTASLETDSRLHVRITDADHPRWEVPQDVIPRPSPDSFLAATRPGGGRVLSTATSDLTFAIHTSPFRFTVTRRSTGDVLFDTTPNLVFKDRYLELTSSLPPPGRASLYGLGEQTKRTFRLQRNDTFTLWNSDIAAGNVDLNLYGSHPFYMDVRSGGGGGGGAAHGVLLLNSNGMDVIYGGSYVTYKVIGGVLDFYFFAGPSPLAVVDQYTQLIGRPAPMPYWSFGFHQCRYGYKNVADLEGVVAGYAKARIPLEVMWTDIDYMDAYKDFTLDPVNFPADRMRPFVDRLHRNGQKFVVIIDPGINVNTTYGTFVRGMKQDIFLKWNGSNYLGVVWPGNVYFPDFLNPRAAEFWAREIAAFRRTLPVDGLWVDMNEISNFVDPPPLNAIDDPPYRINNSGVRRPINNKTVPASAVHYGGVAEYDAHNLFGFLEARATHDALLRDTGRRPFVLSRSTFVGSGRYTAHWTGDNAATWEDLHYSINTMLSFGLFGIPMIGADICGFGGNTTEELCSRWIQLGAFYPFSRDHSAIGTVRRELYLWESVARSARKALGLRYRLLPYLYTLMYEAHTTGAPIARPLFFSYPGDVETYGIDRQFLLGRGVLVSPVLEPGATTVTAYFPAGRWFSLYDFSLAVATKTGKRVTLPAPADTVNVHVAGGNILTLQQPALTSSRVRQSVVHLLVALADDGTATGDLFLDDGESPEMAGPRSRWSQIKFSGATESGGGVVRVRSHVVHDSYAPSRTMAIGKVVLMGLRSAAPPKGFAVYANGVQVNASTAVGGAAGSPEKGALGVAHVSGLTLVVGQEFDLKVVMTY
T1 sequence (Q42656 16-378): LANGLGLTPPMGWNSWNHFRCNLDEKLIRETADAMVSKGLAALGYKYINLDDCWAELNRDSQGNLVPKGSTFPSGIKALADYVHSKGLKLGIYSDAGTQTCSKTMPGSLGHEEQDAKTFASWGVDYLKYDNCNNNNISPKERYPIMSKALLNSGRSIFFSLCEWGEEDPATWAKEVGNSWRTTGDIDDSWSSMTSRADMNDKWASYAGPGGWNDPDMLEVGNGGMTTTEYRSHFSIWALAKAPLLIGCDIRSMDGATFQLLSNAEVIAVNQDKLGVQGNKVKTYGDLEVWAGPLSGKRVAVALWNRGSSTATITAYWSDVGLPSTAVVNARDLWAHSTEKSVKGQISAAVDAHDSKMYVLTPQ

A word on the IC50: it is the concentration that inhibits the measured activity by half. Lower therefore signals higher potency. `CC(=O)N[C@@H]1[C@@H](O)[C@H](O)[C@@H](CO)N[C@H]1CO` [1′, N-((2R,3R,4R,5S,6R)-3,4-dihydroxy-2,6-bis(hydroxymethyl)piperidin-5-yl)acetamide]: the “selectivity of inhibitory activity towards β-N-acetyl hexosaminidase” value in assay [1] is given as “selective inhibitory activity”. The IC50 in assay [1] was 72 µM; in assay [5] it was “NI (No Inhibition (less than 50% inhibition at 1000 μM))”; in assay [6] it was 65 µM; in assay [7] it was “NI (No Inhibition (less than 50% inhibition at 1000 μM))”; in assay [11] it was “NI (No Inhibition (less than 50% inhibition at 1000 μM))”; in assay [12], “NI (No Inhibition (less than 50% inhibition at 1000 μM))”. The inhibition at 1000 µM in assay [2] (setting [16]) is 13.1%; in assay [2] (read-out: IC50), less than 50%; in [4] (setting [16]) it was 42.7%; in [4] (read-out: IC50), less than 50%; in assay [8] (setting [16]), 0%; in assay [8] (read-out: IC50), less than 50%. Further, the inhibition at 1000 µM is 15.9% in assay [9] (setting [16]); less than 50% in assay [9] (read-out: IC50); 15.4% in [10] (setting [17]); less than 50% in assay [10] (α-glucosidase, yeast, read-out: IC50). The “% of inhibition at 1000 μM” value is on record as 5.7% in assay [3]; 15.5% in assay [5]; 1.3% in assay [7]; 18.3% in assay [11]; 0% in assay [12].
On to `CC(=O)N[C@@H]1[C@@H](O)[C@H](O)[C@@H](CO)N[C@@H]1CO` [Compound 1, N-((2R,3R,4R,5S,6S)-3,4-dihydroxy-2,6-bis(hydroxymethyl)piperidin-5-yl)acetamide], for which the “selectivity of inhibitory activity towards β-N-acetyl hexosaminidase” value in assay [1] was “selective inhibitory activity”. Besides, the IC50 in assay [1] is 56 µM; in [5], “NI (No Inhibition (less than 50% inhibition at 1000 μM))”; in assay [6], 67 µM; in assay [7], “NI (No Inhibition (less than 50% inhibition at 1000 μM))”; in assay [11], “NI (No Inhibition (less than 50% inhibition at 1000 μM))”; in assay [12] it was “NI (No Inhibition (less than 50% inhibition at 1000 μM))”. For the same molecule, the inhibition at 1000 µM in assay [2] (setting [16]) was 19.7%; in assay [2] (read-out: IC50) it was less than 50%; in assay [4] (setting [16]), 42.4%; in assay [4] (read-out: IC50) it was less than 50%; in [8] (setting [16]) it was 2.3%; in [8] (read-out: IC50), less than 50%. In addition, the inhibition at 1000 µM in [9] (setting [16]) is 32.3%; in [9] (read-out: IC50), less than 50%; in assay [10] (setting [17]), 18.5%; in [10] (read-out: IC50), less than 50%. For the same molecule, the “% of inhibition at 1000 μM” value in [3] is given as 5.0%; in assay [5], 4.4%; in assay [7] it was 26.7%; in [11] it was 5.0%; in assay [12], 1.9%.
Turning to “N-((2R,3R,4R,5S,6S)-3,4-dihydroxy-2,6-bis(hydroxymethyl)piperidin-5-yl)acetamide [Compound 1]”, the results for the “NAGLU enzyme activation, result in words” value in [13], in assay [14] and in assay [15] were “activation at lower concentrations”, “concentration dependent increase up to 1 μM” and “activation at lower concentrations”, respectively. Also, in assay [14] (best activation seen), the “NAGLU enzyme activation (fold increase in FU/μg protein vs untreated cells)” value came to 2.4 fold.

(Values after patent US20140296288A1, “IMINO-SUGAR C-GLYCOSIDES, PREPARATION AND USE THEREOF” (UNIVERSITE PIERRE ET MARIE CURIE (PARIS 6), priority 2011, published 2014).)
